Results as given in patent US20220117919A1, “ENHANCED BIOAVAILABILITY OF N-(2,6-BIS(1-METHYLETHYL)PHENYL)-N'-((1-(4-(DIMETHYLAMINO)-PHENYL)CYCLOPENTYL)METHYL)UREA HYDROCHLORIDE” (The Regents of the University of Michigan, priority 2015, published 2022).
Where “and” joins values, the source holds several entries; their conditions need not be identical. Equal values may be shown once. Where a name gives a salt, the structure may show the parent alone.

Experiment: Food and acidic beverage effect on bioavailability of ATR-101 tablets, 3-way crossover plasma PK study
Type: in vivo, human
Conditions: single oral 500 mg; for kel: in h-1
Description: To evaluate the effects of food and of an acidic beverage on bioavailability of ATR-101 tablets prepared according to Example 2 (see Table 2), an open-label, randomized, 3-period, 3-way crossover, 3-sequence study was carried out with fourteen healthy, adult, non-tobacco using male and female (non-childbearing potential only) human subjects.
Three different treatments A, B, and C were administered as follows:
Treatment A: 500 mg ATR-101 (1×500 mg tablet) administered with water at Hour 0 on Day 1 following an overnight fast.
Treatment B: 500 mg ATR-101 (1×500 mg tablet) administered with water at Hour 0, 30 minutes after the start of a high-fat breakfast, on Day 1.
Treatment C: 500 mg ATR-101 (1×500 mg tablet) administered with Coca-Cola® Classic at Hour 0 on Day 1 following an overnight fast.
On Day 1 of Period 1, subjects were randomized to one of 3 treatment sequences: ABC, BCA, or CBA. For Treatments A and B, ATR-101 was administered orally with approximately 240 mL of water. For Treatment C, ATR-101 was administered orally with approximately 240 mL of Coca-Cola® Classic. Water (except water provided with dosing for Treatments A and B) was restricted 1 hour prior to and 1 hour after each study drug administration, but was allowed ad libitum at all other times. Other fluids were given as part of the standard meals (including the breakfast administered prior to study drug dosing for Treatment B) and/or snacks, but were restricted at all other times (except for the Coca-Cola® Classic beverage provided with dosing in Treatment C) throughout the confinement period.
For Treatments A and C, subjects fasted overnight for at least 10 hours prior to study drug administration and continued the fast for at least 4 hours post-dose.
For Treatment B, subjects were required to fast overnight for at least 10 hours until 30 minutes prior to study drug administration, when they were given breakfast which was entirely consumed within 30 minutes. A representative breakfast includes 2 slices of buttered toast, 2 fried eggs, 2 strips of bacon, 4 oz of hash brown potatoes, and 240 mL of whole milk.
On Day 1 of each period, a standard lunch and dinner was provided at approximately 4 and 9 hours post-dose, respectively, and a snack was also offered at approximately 12 hours post-dose. On other days when confined in the CRU, standard meals and/or snacks were provided at appropriate times. When confined, subjects were required to fast from all food and drink except water between meals and snacks served at the clinical research unit.
Each meal and/or snack served at the clinical research unit was standardized and was similar in caloric content and composition (except for the meal served as part of Treatment B) and was taken at approximately the same time in each period.
For all subjects, blood samples for the determination of ATR-101 plasma concentration were collected at pre-dose and 0.5, 1, 1.5, 2, 2.5, 3, 3.5, 4, 5, 6, 8, 12, 16, 24, 36, and 48 hours post-dose. PK parameters for plasma ATR-101 were calculated as follows: • AUC0-t: The area under the plasma concentration-time curve, from time 0 to the last measurable non-zero concentration, was calculated by the linear trapezoidal method. • AUC0-inf: The area under the plasma concentration-time curve from time 0 extrapolated to infinity. AUC0-inf was calculated as the sum of AUC0-t plus the ratio of the last measurable plasma concentration to the elimination rate constant. • AUC%extrap: Percent of AUC0-inf extrapolated, represented as
[formula] • Cmax: Maximum observed concentration. • tmax: Time to reach Cmax. If the maximum value occurred at more than one time point, tmax was defined as the first time point with this value. • ke1: Apparent first-order terminal elimination rate constant calculated from a semi-log plot of the plasma concentration versus time curve. […]

[1] = Treatment A (fasting with water), Maximum
[2] = Treatment A (fasting with water), Mean
[3] = Treatment A (fasting with water), Median
[4] = Treatment A (fasting with water), Minimum
[5] = Treatment A (fasting with water), individual subject, hydrochloride
[6] = Treatment B (fed with water), Maximum
[7] = Treatment B (fed with water), Mean
[8] = Treatment B (fed with water), Median
[9] = Treatment B (fed with water), Minimum
[10] = Treatment B (fed with water, high-fat breakfast), individual subject, hydrochloride
[11] = Treatment C (fasting with acidic beverage), Maximum
[12] = Treatment C (fasting with acidic beverage), Mean
[13] = Treatment C (fasting with acidic beverage), Median
[14] = Treatment C (fasting with acidic beverage), Minimum

AUC0-inf [1]: 5050 ng·h/mL | AUC0-t [1]: 4860 ng·h/mL | AUC% extrap [1]: 12.7% | Cmax [1]: 933 ng/mL | t1/2 [1]: 22.7 h | tmax [1]: 12.0 h | kel [1]: 0.0612 | AUC% extrap [2]: 8.64% | kel [2]: 0.0406 | AUC% extrap [3]: 9.43% | kel [3]: 0.0380 | AUC0-inf [4]: 2430 ng·h/mL | AUC0-t [4]: 840 ng·h/mL | AUC% extrap [4]: 3.72% | Cmax [4]: 26.1 ng/mL | t1/2 [4]: 11.3 h | tmax [4]: 1.50 h | kel [4]: 0.0305 | AUC0-inf [6]: 14000 ng·h/mL | AUC0-t [6]: 13200 ng·h/mL | AUC% extrap [6]: 17.9% | Cmax [6]: 2060 ng/mL | t1/2 [6]: 30.7 h | tmax [6]: 5.00 h | kel [6]: 0.0603 | AUC% extrap [7]: 8.00% | kel [7]: 0.0364 | AUC% extrap [8]: 7.27% | kel [8]: 0.0366 | AUC0-inf [9]: 3790 ng·h/mL | AUC0-t [9]: 3520 ng·h/mL | AUC% extrap [9]: 2.07% | Cmax [9]: 719 ng/mL | t1/2 [9]: 11.5 h | tmax [9]: 1.50 h | kel [9]: 0.0226 | AUC0-inf [11]: 6970 ng·h/mL | AUC0-t [11]: 6430 ng·h/mL | AUC% extrap [11]: 21.5% | Cmax [11]: 1550 ng/mL | t1/2 [11]: 27.9 h | tmax [11]: 6.00 h | kel [11]: 0.0501 | AUC% extrap [12]: 10.6% | kel [12]: 0.0377 | AUC% extrap [13]: 8.95% | kel [13]: 0.0376 | AUC0-inf [14]: 728 ng·h/mL | AUC0-t [14]: 572 ng·h/mL | AUC% extrap [14]: 3.84% | Cmax [14]: 19.8 ng/mL | t1/2 [14]: 13.8 h
SMILES: CC(C)c1cccc(C(C)C)c1NC(=O)NCC1(c2ccc(N(C)C)cc2)CCCC1 [ATR-101, N-(2,6-bis(1-methylethyl)phenyl)-N′-((1-(4-(dimethylamino)-phenyl)cyclopentyl)methyl)urea hydrochloride]
AUC0-inf [5]: 2740 and 4290 and 2630 and 2430 and 5050 and 2560 and 4700 and 4940 and 4370 | AUC0-t [5]: 2450 and 3180 and 3810 and 2490 and 840 and 2200 and 4860 and 2330 and 1520 and 4100 and 4400 and 3880 | AUC% extrap [5]: 10.6% and 6.68% and 11.2% (2×) and 5.32% and 9.43% and 3.72% and 8.82% and 12.7% and 4.61% and 10.8% | Cmax [5]: 509 ng/mL and 620 ng/mL and 807 ng/mL and 26.1 ng/mL and 612 ng/mL and 539 ng/mL and 306 ng/mL and 526 ng/mL and 486 ng/mL and 933 ng/mL and 842 ng/mL | tmax [5]: 2.5 h and 1.50 h and 12.0 h and 1.5 h and 3.00 h | kel [5]: 0.0378 and 0.0414 and 0.0347 and 0.0456 and 0.0380 and 0.0612 and 0.0404 and 0.0317 and 0.0531 and 0.0305 and 0.0318 | AUC0-inf [10]: 3790 and 6400 and 14000 and 5390 and 4540 and 7640 and 9000 and 7660 and 7670 and 5830 and 5820 and 4900 and 9990 and 7210 | AUC0-t [10]: 3520 and 5930 and 13200 and 5280 and 4120 and 6890 and 8430 and 6810 and 6290 and 5420 and 5310 and 4740 and 9300 and 6570 | AUC% extrap [10]: 7.07% and 7.35% and 5.87% and 2.07% and 9.33% and 9.87% and 6.38% and 1.1% and 17.9% and 7.19% and 8.76% and 3.35% and 6.89% and 8.80% | Cmax [10]: 1040 ng/mL and 1620 ng/mL and 2060 ng/mL and 1120 ng/mL and 848 ng/mL and 1340 ng/mL and 2000 ng/mL and 1210 ng/mL and 931 ng/mL and 719 ng/mL and 759 ng/mL and 1690 ng/mL and 993 ng/mL | t1/2 [10]: 19.3 h and 20.9 h and 16.9 h and 11.5 h and 25.1 h and 27.8 h and 18.0 h and 24.9 h and 30.7 h and 17.4 h and 23.9 h and 13.2 h and 17.7 h and 18.6 h | tmax [10]: 1.50 h and 2.50 h and 3.00 h and 5.00 h and 4.01 h and 3.57 h | kel [10]: 0.0359 and 0.0332 and 0.0410 and 0.0603 and 0.0276 and 0.0249 and 0.0385 and 0.0278 and 0.0226 and 0.0398 and 0.0290 and 0.0526 and 0.0392 and 0.0374
